The assay concerns glucocorticoid receptor function. The experiment in a line: one or more of the above assays (GR binding and glucocorticoid receptor cell assays: aromatase, IL-6, TAT, MMTV-Luc, IL-8, ICAM-Luc). It counts as cell-based. As to conditions: assay not specified per compound.
For the compound `CC(C)(CC(O)(Cc1cc2cc(Oc3ccccc3)ncc2[nH]1)C(F)(F)F)c1cc(-c2cccnc2)ccc1O` (centres unmarked) [4-Pyridin-3-yl-2-[4,4,4-trifluoro-3-hydroxy-1,1-dimethyl-3-(5-phenoxy-1H-pyrrolo[2,3-c]pyridin-2-ylmethyl)butyl]phenol], the “activity as agonists of the glucocorticoid receptor function in one or more of the above assays” value (“activity as agonists” for short) is “potent agonists”.
The result for `Cc1ccc(F)cc1C(C)(C)CC(O)(Cc1cc2cc(N(C)C(C)C)ncc2[nH]1)C(F)(F)F` (centres unmarked) [1,1,1-Trifluoro-4-(5-fluoro-2-methylphenyl)-2-[5-(isopropylmethylamino)-1H-pyrrolo[2,3-c]pyridin-2-ylmethyl]-4-methylpentan-2-ol] reads “potent agonists”; that for `COc1ccc(C)cc1C(C)(C)CC(O)(Cc1cc2nc(N3CCCC3)ncc2[nH]1)C(F)(F)F` (centres unmarked) [1,1,1-Trifluoro-4-(2-methoxy-5-methylphenyl)-4-methyl-2-(2-pyrrolidin-1-yl-5H-pyrrolo[3,2-d]pyrimidin-6-ylmethyl)pentan-2-ol], “potent agonists”; that for “4-Pyrimidin-5-yl-2-[4,4,4-trifluoro-3-hydroxy-1,1-dimethyl-3-(1H-pyrrolo[2,3-c]pyridin-ylmethyl)butyl]phenol”, “potent agonists”.
The result for `COc1ccc(-c2cncnc2)cc1C(C)(C)CC(O)(Cn1ccc2c1CCCC2=O)C(F)(F)F` (centres unmarked) [1-[2-Hydroxy-4-(2-methoxy-5-pyrimidin-5-ylphenyl)-4-methyl-2-trifluoromethylpentyl]-1,5,6,7-tetrahydroindol-4-one] reads “agonists”; that for `COc1ccc(-c2ccsc2)cc1C(C)(C)CC(O)(Cc1cc2ccncc2[nH]1)C(F)(F)F` (centres unmarked) [1,1,1-Trifluoro-4-(2-methoxy-5-thiophen-3-ylphenyl)-4-methyl-2-(1H-pyrrolo[2,3-c]pyridin-2-ylmethyl)pentan-2-ol], “potent agonists”.
For `CC(C)(CC(O)(Cc1cc2nc(CN3CCOCC3)ccc2[nH]1)C(F)(F)F)c1cc(Cl)cc2c1OCC2` (centres unmarked) [4-(5-Chloro-2,3-dihydrobenzofuran-7-yl)-1,1,1-trifluoro-4-methyl-2-(5-morpholin-4-ylmethyl-1H-pyrrolo[3,2-b]pyridin-2-ylmethyl)pentan-2-ol], the “activity as agonists” value was “potent agonists”.
The result for `CC(C)(CC(O)(Cc1cc2nc(-c3ccccc3)ncc2[nH]1)C(F)(F)F)c1cc(F)ccc1O` (centres unmarked) [4-Fluoro-2-[4,4,4-trifluoro-3-hydroxy-1,1-dimethyl-3-(2-phenyl-5H-pyrrolo[3,2-d]pyrimidin-6-ylmethyl)butyl]phenol] reads “potent agonists”; that for `CC(C)(CC(O)(Cc1cc2cc(-c3ccccc3)ncc2[nH]1)C(F)(F)F)c1cccc(CN2CCOCC2)c1` (centres unmarked) [1,1,1-Trifluoro-4-methyl-4-(3-morpholin-4-ylmethylphenyl)-2-(5-phenyl-1H-pyrrolo[2,3-c]pyridin-2-ylmethyl)pentan-2-ol], “potent agonists”; that for `CCOc1cc2cc(CC(O)(CC(C)(C)c3cc(F)ccc3C)C(F)(F)F)[nH]c2cn1` (centres unmarked) [2-(5-Ethoxy-1H-pyrrolo[2,3-c]pyridin-2-ylmethyl)-1,1,1-trifluoro-4-(5-fluoro-2-methylphenyl)-4-methylpentan-2-ol], “potent agonists”.
The result for `CC(C)Oc1cc2cc(CC(O)(CC(C)(C)c3cc(F)ccc3C(F)(F)F)C(F)(F)F)[nH]c2cn1` (centres unmarked) [1,1,1-Trifluoro-4-(5-fluoro-2-trifluoromethylphenyl)-2-(5-isopropoxy-1H-pyrrolo[2,3-c]pyridin-2-ylmethyl)-4-methylpentan-2-ol] reads “potent agonists”; that for `Cc1ccc(F)cc1C(C)(C)CC(O)(Cc1cc2cc(-c3ccccc3)ncc2[nH]1)C(C)(C)C` (centres unmarked) [5-(5-Fluoro-2-methylphenyl)-2,2,5-trimethyl-3-(5-phenyl-1H-pyrrolo[2,3-c]pyridin-2-ylmethyl)hexan-3-ol], “agonists”.
With `COc1ccc(Br)cc1C(C)(C)CC(O)(Cc1cc2cc(N(C)C)ncc2[nH]1)C(F)(F)F` (centres unmarked) [4-(5-Bromo-2-methoxyphenyl)-2-(5-dimethylamino-1H-pyrrolo[2,3-c]pyridin-2-ylmethyl)-1,1,1-trifluoro-4-methylpentan-2-ol], the “activity as agonists” value is reported as “potent agonists”.
The result for `CC(C)(CC(O)(Cc1cc2cc(Cl)ncc2[nH]1)C(F)(F)F)c1cc(Cl)cc2c1OCC2` (centres unmarked) [4-(5-Chloro-2,3-dihydrobenzofuran-7-yl)-2-(5-chloro-1H-pyrrolo[2,3-c]pyridin-2-ylmethyl)-1,1,1-trifluoro-4-methylpentan-2-ol] reads “potent agonists”.
Take `COc1ccc(-c2cncnc2)cc1C(C)(C)CC(O)(Cc1cc2cc(O)ncc2[nH]1)C(F)(F)F` (centres unmarked) [2-[2-Hydroxy-4-(2-methoxy-5-pyrimidin-5-ylphenyl)-4-methyl-2-trifluoromethylpentyl]-1H-pyrrolo[2,3-c]pyridin-5-ol]: the “activity as agonists” value is given as “potent agonists”.
On to `CCN(C)c1cc2cc(CC(O)(CC(C)(C)c3cc(-c4ccccc4C#N)ccc3O)C(F)(F)F)[nH]c2cn1` (centres unmarked) [3′-{3-[5-(Ethylmethylamino)-1H-pyrrolo[2,3-c]pyridin-2-ylmethyl]-4,4,4-trifluoro-3-hydroxy-1,1-dimethylbutyl}-4′-hydroxybiphenyl-2-carbonitrile], for which the “activity as agonists” value is “potent agonists”.
Consider `CC(C)C(=O)c1ccc2[nH]c(CC(O)(CC(C)(C)c3cc(Cl)cc4c3OCC4)C(F)(F)F)cc2n1` (centres unmarked) [1-{2-[4-(5-Chloro-2,3-dihydrobenzofuran-7-yl)-2-hydroxy-4-methyl-2-trifluoromethylpentyl]-1H-pyrrolo[3,2-b]pyridin-5-yl}-2-methylpropan-1-one], for which the “activity as agonists” value is “potent agonists”.
Regarding `COc1ccc(-c2ccccc2Cl)cc1C(C)(C)CC(O)(Cc1cc2cc(N3CCOCC3)ncc2[nH]1)C(F)(F)F` (centres unmarked) [4-(2′-Chloro-4-methoxybiphenyl-3-yl)-1,1,1-trifluoro-4-methyl-2-(5-morpholin-4-yl-1H-pyrrolo[2,3-c]pyridin-2-ylmethyl)pentan-2-ol], the “activity as agonists” value is reported as “potent agonists”.
For `COc1ccc(-c2ccsc2)cc1C(C)(C)CC(O)(Cc1cc2cc(Cl)ncc2[nH]1)C(F)(F)F` (centres unmarked) [2-(5-Chloro-1H-pyrrolo[2,3-c]pyridin-2-ylmethyl)-1,1,1-trifluoro-4-(2-methoxy-5-thiophen-3-ylphenyl)-4-methylpentan-2-ol], the “activity as agonists” value is on record as “potent agonists”.
The entry for `CC(C)(CC(O)(Cc1cc2cnccc2[nH]1)C(F)F)c1cc(F)ccc1O` (centres unmarked) [2-[4,4-Difluoro-3-hydroxy-1,1-dimethyl-3-(1H-pyrrolo[3,2-c]pyridin-2-ylmethyl)butyl]-4-fluorophenol] is “agonists”; for `CC(C)c1ncc2[nH]c(CC(O)(CC(C)(C)c3cc(Cl)cc4c3OCC4)C(F)(F)F)cc2n1` (centres unmarked) [4-(5-Chloro-2,3-dihydrobenzofuran-7-yl)-1,1,1-trifluoro-2-(2-isopropyl-5H-pyrrolo[3,2-d]pyrimidin-6-ylmethyl)-4-methylpentan-2-ol] it is “potent agonists”; for `CC(C)(CC(O)(Cc1cc2ncncc2[nH]1)C(F)(F)F)c1cc(F)ccc1O` (centres unmarked) [4-Fluoro-2-[4,4,4-trifluoro-3-hydroxy-1,1-dimethyl-3-(5H-pyrrolo[3,2-d]pyrimidin-6-ylmethyl)butyl]phenol] it is “potent agonists”.
The entry for `CC(C)Oc1cc2cc(CC(O)(CC(C)(C)c3ccccc3)C(F)(F)F)[nH]c2cn1` (centres unmarked) [1,1,1-Trifluoro-2-(5-isopropoxy-1H-pyrrolo[2,3-c]pyridin-2-ylmethyl)-4-methyl-4-phenylpentan-2-ol] is “potent agonists”; for `CC(C)(CC(O)(Cc1cc2cc(-c3cccc(C#N)c3)ccc2[nH]1)C(F)(F)F)c1cc(F)cc2c1OCC2` (centres unmarked) [3-{2-[4-(5-Fluoro-2,3-dihydrobenzofuran-7-yl)-2-hydroxy-4-methyl-2-trifluoromethylpentyl]-1H-indol-5-yl}benzonitrile] it is “potent agonists”.
The result for `CC(CO)(CC(O)(Cc1ccnc2ccccc12)C(F)(F)F)c1ccccc1` (centres unmarked) [5,5,5-Trifluoro-2-methyl-2-phenyl-4-quinolin-4-ylmethylpentane-1,4-diol] reads “agonists”.
Consider `CC(C)(CC(O)(Cc1cc2ccc(C#N)cc2[nH]1)C(F)(F)F)c1cc(S(C)(=O)=O)cc2c1OCC2` (centres unmarked) [2-[2-Hydroxy-4-(5-methanesulfonyl-2,3-dihydrobenzofuran-7-yl)-4-methyl-2-trifluoromethylpentyl]-1H-indole-6-carbonitrile], for which the “activity as agonists” value was “potent agonists”.
Consider `CC(C)(CC(O)(Cc1cc2nc(CN)ccc2[nH]1)C(F)(F)F)c1cc(Cl)cc2c1OCC2` (centres unmarked) [2-(5-Aminomethyl-1H-pyrrolo[3,2-b]pyridin-2-ylmethyl)-4-(5-chloro-2,3-dihydrobenzofuran-7-yl)-1,1,1-trifluoro-4-methylpentan-2-ol], for which the “activity as agonists” value was “potent agonists”.
On to `CC(C)(CC(O)(Cn1ccc2c1CCCC2=O)C(F)(F)F)c1cc(-c2cncnc2)cc2c1OCC2` (centres unmarked) [1-[2-Hydroxy-4-methyl-4-(5-pyrimidin-5-yl-2,3-dihydrobenzofuran-7-yl)-2-trifluoromethylpentyl]-1,5,6,7-tetrahydroindol-4-one], for which the “activity as agonists” value is given as “agonists”.
The entry for `CN(C)Cc1c(CC(O)(CC(C)(C)c2cc(F)ccc2O)C(F)(F)F)[nH]c2ccncc12` (centres unmarked) is “potent agonists”.

Values taken from patent US8741897B2, “Glucocorticoid mimetics, methods of making them, pharmaceutical compositions and uses thereof” (Boehringer Ingelheim Pharmaceuticals Inc., priority 2003, dated 2014).
